Laboratory results as given in patent publication US20240002374A1, “5-MEMBERED HETEROARYLAMINOSULFONAMIDES FOR TREATING CONDITIONS MEDIATED BY DEFICIENT CFTR ACTIVITY” (Genzyme Corporation, priority 2019, published 2024).

Each compound was assayed against T1, CFTR (primary human bronchial epithelial cells from a ΔF508 homozygous CF donor, CF-HBE cells) (Homo sapiens, UniProt P13569, DEL508-508) (assay: TECC24 recording of CFTR-mediated transepithelial chloride transport (TECC24 AUC fold over DMSO @ 3 μM)). Conditions: 3 uM test agent; CF-HBE cells (ΔF508 homozygous) incubated 48 h; ratio of test agent AUC of forskolin-stimulated IEQ to vehicle (DMSO) AUC.
T1 construct: Primary human bronchial epithelial cells from a ΔF508 homozygous CF donor; host or cells: primary human bronchial epithelial cells (CF-HBE) from a ΔF508 homozygous CF donor
T1 sequence (P13569 with tags, fused parts or gaps DEL508-508): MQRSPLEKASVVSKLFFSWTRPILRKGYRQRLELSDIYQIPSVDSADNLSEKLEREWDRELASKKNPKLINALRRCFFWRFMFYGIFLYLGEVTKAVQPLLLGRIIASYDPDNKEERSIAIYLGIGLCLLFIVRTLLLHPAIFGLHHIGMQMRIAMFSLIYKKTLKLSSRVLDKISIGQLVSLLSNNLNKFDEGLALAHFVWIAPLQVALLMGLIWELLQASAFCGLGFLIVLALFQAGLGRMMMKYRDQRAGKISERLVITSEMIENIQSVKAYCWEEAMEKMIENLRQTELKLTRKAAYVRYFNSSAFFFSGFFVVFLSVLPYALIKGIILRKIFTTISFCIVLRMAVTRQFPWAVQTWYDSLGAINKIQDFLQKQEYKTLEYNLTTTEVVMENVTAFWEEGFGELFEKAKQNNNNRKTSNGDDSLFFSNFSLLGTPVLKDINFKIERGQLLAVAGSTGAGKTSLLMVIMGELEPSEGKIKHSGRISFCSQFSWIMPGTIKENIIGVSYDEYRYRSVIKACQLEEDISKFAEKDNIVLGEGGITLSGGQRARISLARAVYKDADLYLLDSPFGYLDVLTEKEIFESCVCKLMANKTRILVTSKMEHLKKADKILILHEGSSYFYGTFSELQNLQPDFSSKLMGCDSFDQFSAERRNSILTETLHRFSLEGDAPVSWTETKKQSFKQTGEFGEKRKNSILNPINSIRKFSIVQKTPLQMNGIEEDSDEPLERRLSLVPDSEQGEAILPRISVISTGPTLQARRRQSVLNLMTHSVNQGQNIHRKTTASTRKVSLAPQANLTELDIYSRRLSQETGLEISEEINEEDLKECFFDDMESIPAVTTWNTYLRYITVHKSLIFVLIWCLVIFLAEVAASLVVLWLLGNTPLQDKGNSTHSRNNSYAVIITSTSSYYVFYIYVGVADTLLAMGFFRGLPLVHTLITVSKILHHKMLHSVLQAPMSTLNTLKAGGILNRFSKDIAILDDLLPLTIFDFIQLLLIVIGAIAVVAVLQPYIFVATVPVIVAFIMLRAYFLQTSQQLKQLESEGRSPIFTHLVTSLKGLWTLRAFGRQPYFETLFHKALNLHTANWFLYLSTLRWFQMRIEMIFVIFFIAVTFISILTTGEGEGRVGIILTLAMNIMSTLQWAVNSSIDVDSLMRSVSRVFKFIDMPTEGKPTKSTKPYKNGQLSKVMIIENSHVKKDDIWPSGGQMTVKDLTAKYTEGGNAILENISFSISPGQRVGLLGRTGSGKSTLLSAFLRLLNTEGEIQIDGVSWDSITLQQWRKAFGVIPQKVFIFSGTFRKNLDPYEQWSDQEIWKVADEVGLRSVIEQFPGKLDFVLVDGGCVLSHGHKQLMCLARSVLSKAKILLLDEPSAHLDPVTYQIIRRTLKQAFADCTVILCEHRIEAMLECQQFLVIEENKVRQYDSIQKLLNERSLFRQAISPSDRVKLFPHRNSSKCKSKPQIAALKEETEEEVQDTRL
Format: cell-based
Procedure, shortened: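 ΔF508-homozygous CF-HBE cells incubated 48 h at 36.5° C with test agent (3 μM) in IL-13-containing medium, then recorded in current clamp with benzamil (10 μM), forskolin (10 μM) and bumetanide (20 μM). AUC of equivalent Cl− current between forskolin and bumetanide expressed as fold over DMSO vehicle.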
For `Cc1cccc(C)c1-c1nc(NS(=O)(=O)c2cccc(N(C)C)n2)sc1-c1cccc(OCCC(C)(C)C)c1` [Example 334, 6-(dimethylamino)-N-[5-[3-(3,3-dimethylbutoxy)phenyl]-4-(2,6-dimethylphenyl)-1,3-thiazol-2-yl]pyridine-2-sulfonamide], the “TECC AUC vs. DMSO @ 3 uM” value was “A (“A” refers to AUC > 5)”. For `Cc1nn(C)cc1S(=O)(=O)Nc1nc(-c2ccccc2C(C)C)c(-c2cccc([C@@H]3CC[C@H](OC(F)(F)F)C3)c2)s1` [Example 46B1, N-(4-(2-Isopropylphenyl)-5-(3-((1R,3S)-3-(trifluoromethoxy)cyclopentyl)phenyl)thiazol-2-yl)-1,3-dimethyl-1H-pyrazole-4-sulfonamide], the “TECC AUC vs. DMSO @ 3 uM” value was “A (“A” refers to AUC > 5)”. In the case of `CC(C)c1ccccc1-c1nc(NS(=O)(=O)c2cccc(N)c2F)sc1-c1cccc([C@H]2CC[C@@H](OC(F)(F)F)C2)c1` [Example 48A1, 3-Amino-2-fluoro-N-(4-(2-isopropylphenyl)-5-(3-((1S,3R)-3-(trifluoromethoxy)cyclopentyl)phenyl)thiazol-2-yl)benzenesulfonamide], the “TECC AUC vs. DMSO @ 3 uM” value is reported as “A (“A” refers to AUC > 5)”. With `CC(C)c1ccccc1-c1nc(NS(=O)(=O)c2cccc(N)c2)sc1-c1cccc(OCC(F)(F)C(C)(C)C)c1` [Example 490, 3-amino-N-[5-[3-(2,2-difluoro-3,3-dimethylbutoxy)phenyl]-4-(2-propan-2-ylphenyl)-1,3-thiazol-2-yl]benzenesulfonamide] the “TECC AUC vs. DMSO @ 3 uM” value was “B (“B” refers to AUC 2-5)”. In the case of `CC(C)c1ccccc1-c1nc(NS(=O)(=O)c2cccc(N)c2F)sc1N1CCOC2(CCC(C)(C)C2)C1` (centres unmarked) [Example 39, 3-Amino-N-(5-(2,2-dimethyl-6-oxa-9-azaspiro[4.5]decan-9-yl)-4-(2-isopropylphenyl)thiazol-2-yl)-2-fluorobenzenesulfonamide], the “TECC AUC vs. DMSO @ 3 uM” value is reported as “B (“B” refers to AUC 2-5)”. For `Cc1cccc(C)c1-c1nc(NS(=O)(=O)c2ccccc2)sc1-c1cccc(OCCC(C)(C)C)c1` [Example 16, N-(5-(3-(3,3-Dimethylbutoxy)phenyl)-4-(2,6-dimethylphenyl)thiazol-2-yl)benzenesulfonamide], the “TECC AUC vs. DMSO @ 3 uM” value was “A (“A” refers to AUC > 5)”. `CC(C)(C)CCOc1cccc(-c2sc(NS(=O)(=O)c3cccc(N)c3)nc2-c2ccccc2C(F)(F)F)c1` [Example 8, 3-Amino-N-[5-[3-(3,3-dimethylbutoxy)phenyl]-4-[2-(trifluoromethyl)phenyl]thiazol-2-yl]benzenesulfonamide] was tested, and the “TECC AUC vs. DMSO @ 3 uM” value was “A (“A” refers to AUC > 5)”. For `Cc1nn(C)cc1S(=O)(=O)Nc1nc(-c2ccccc2C(F)(F)F)c(-c2cccc([C@H]3CC[C@H](OC(F)(F)F)C3)c2)s1` (single isomer, unassigned) [Example 45A2], the “TECC AUC vs. DMSO @ 3 uM” value was “B (“B” refers to AUC 2-5)”.
